Reference: article PMC10162847 (Phytomedicine, 2023)
Like-named read-outs stand apart in the source and are kept apart here.

How the values were obtained:
SARS-CoV-2 = format: cell-based; conditions: VeroE6 cells, concentration-dependent
HCoV-229E = experiment: microbe, parasite or virus in culture; format: cell-based; conditions: Human coronavirus 229E
in vitro = conditions: human
[1] = tested on: RIPK1/NF-κB pathway in THP1 macrophages; format: cell-based
DNFB-induced ear edema = conditions: DTH model
[2] = tested on: dimethylbenzene-induced auricular edema
Vero E6 cells = conditions: MTT, 72 h
[3] = KM mice, oral 6000 mg/kg (2000 mg/kg 3 times within 24 h), 7 days observation
[4] = tested on: LPS-induced acute lung injury; format: in vivo, C57BL/6 mice; conditions: ALI mice
[5] = target: interactions between the RBD^WT and ACE2 protein (Severe acute respiratory syndrome coronavirus 2, UniProt P0DTC2); format: binding; conditions: ELISA
[6] = tested on: carrageenan-induced paw edema; experiment: Carrageenan-induced paw edema in rats; format: in vivo, Sprague-Dawley (SD) rats; conditions: oral 50, 100, 200 mg/kg for 7 days, 2nd-5th h after carrageenan injection
[7] = tested on: SARS-CoV-2 pseudo typed lentivirus; format: cell-based; conditions: fluorescence signal, 0-300 μM, pre-incubation 0.5 h
[8] = Huh-7, read-out: EC50, HCoV-229E replication, CPE assay
[9] = Huh-7, read-out: EC50, HCoV-229E replication, MTT assay
[10] = western blotting, THP1 macrophages
[11] = oral pre-treatment 200, 300, 400 mg/kg

Q: Which SARS-CoV-2 proliferation (SARS-CoV-2) does the source give for `CCC(CC)COC(=O)[C@H](C)N[P@](=O)(OC[C@H]1O[C@@](C#N)(c2ccc3c(N)ncnn23)[C@H](O)[C@@H]1O)Oc1ccccc1` [remdesivir, reference compound] here?
A: inhibited

Q: What about the EC50 (HCoV-229E; [8]) of the same compound?
A: 0.0562 µM

Q: And the EC50 (HCoV-229E; [9])?
A: 0.0583 µM

Q: What about the CC50 (in vitro) of the same compound?
A: 108 µM

Q: With `O=c1c(O)c(-c2cc(O)c(O)c(O)c2)oc2cc(O)cc(O)c12` [myricetin, 3,5,7-trihydroxy-2-(3,4,5-tri hydroxyphenyl)-4-benzopyrone] as the compound, how does the “RIPK1 expression levels and mRNA levels of NF-κBp65, RIPK3, RIPK1, MLKL, FADD, Caspase8 and JNK” value ([1]; LPS-induced THP1 macrophages, 100, 200, 400 μM) read?
A: significantly reduced

Q: And the “RIPK1, phosphorylation of NF-κBp65 and RIPK1 induced by LPS stimulation” value [1, 10]?
A: significantly inhibited

Q: And the “abundance of the NF-κBp65 protein among the total proteins” value [1, 10]?
A: unaltered

Q: What about the organ damage (DNFB-induced ear edema; BALB/c mice) of the same compound?
A: without any organ damage

Q: What about the mouse ear thickness (DNFB-induced ear edema; oral 50, 100, 200 mg/kg, 20, 40, 60 and 80 min after modeling) of the same compound?
A: decreased

Q: What about the immune organ toxicity ([2]; dimethylbenzene-induced auricular edema model) of the same compound?
A: without immune organ toxicity

Q: What about the “edema formation in the dermis” value ([2]; dimethylbenzene-induced auricular edema, 7 days pre-treatment) of the same compound?
A: significantly suppressed

Q: And the EC50 (HCoV-229E; [8])?
A: 53.5 µM

Q: What about the EC50 (HCoV-229E; [9]) of the same compound?
A: 61.5 µM

Q: What about the CC50 (Vero E6 cells) of the same compound?
A: 248 µM

Q: And the “acute toxicity, exposure-related clinical symptoms” value [3]?
A: no exposure-related clinical signs

Q: What about the “mRNA levels of TNFα, IL-6 and NF-κBp65 in the lung tissues” value [4] of the same compound?
A: significantly downregulated

Q: What about the alveolar inflammation [4, 11] of the same compound?
A: decreased the alveolar inflammation

Q: And the lung edema [4, 11]?
A: alleviated lung edema

Q: And the “interactions between the RBD^WT and ACE2 protein” value [5]?
A: significantly inhibited

Q: And the “inflammatory activity (paw edema)” value [6]?
A: significantly reduce

Q: And the “binding of the SARS-CoV-2 pseudo typed lentivirus to HEK293-hACE2-mCherry cells” value [7]?
A: repressed
